Experiments:
Rattus norvegicus = conditions: oral
Mus musculus = conditions: oral
[1] = short-term, duration: 1 weeks, diet, M, Wistar, Body Weight: ~32% weight loss
[2] = short-term, duration: 28 days, F, Sprague-Dawley, Body Weight: Decreased body weight gain (21%)
[3] = short-term, duration: 28 days, F, Sprague-Dawley, Hematological: Decreased MCH and MCHC + Immunotoxicological: Decreased phagocytosis by fixed tissue macrophages in the liver
[4] = short-term, duration: 28 days, F, Sprague-Dawley, Hepatic: Single cell necrosis
[5] = acute, duration: 1 days, gavage, F, Body Weight: 12% decreased body weight 30 days post-exposure + Endocrine: 2-fold increase in T3 and 4-fold increase in T4 levels 30 days …
[6] = developmental, duration: 10 days, gavage, F, Body Weight: No weight gain at 6.4 mg/kg/day and weight loss at 12.8 mg/kg/day (net change of -2.4)
[7] = developmental, duration: 10 days, gavage, F, Developmental: 18-22% decreases in fetal weight per litter at ?1 mg/kg/day / decreases in live fetuses per litter at 12.8 mg/kg/day (4.6 …
[8] = short-term, duration: 4 weeks, F, B6C3F1, Immunotoxicological: Decreases in splenic T-cells, T-cell subsets, and macrophages

Structure (SMILES): O=C(O)C(F)(F)C(F)(F)C(F)(F)C(F)(F)C(F)(F)C(F)(F)C(F)(F)C(F)(F)C(F)(F)F [Perfluorodecanoic acid]
- LOAEL (Rattus norvegicus; acute, duration: 1 days, gavage, M, Wistar, Body Weight: 8% weight loss was observed 10-days post-exposure): 50 mg/kg-day
- NOAEL (Rattus norvegicus; acute, duration: 1 days, gavage, M, Wistar, Neurological: No alteration in performance on novel object recognition test): 50 mg/kg-day
- LOAEL (Rattus norvegicus; [1]): 9.5 mg/kg-day
- NOAEL (Rattus norvegicus; [1]): 4.7 mg/kg-day
- NOAEL (Rattus norvegicus; short-term, duration: 1 weeks, diet, M, Wistar, Hepatic: Increases in liver weight at ?2.4 mg/kg/day / increases in hepatic cholesterol at 9.5 mg/kg/day): 9.5 mg/kg-day
- LOAEL (Rattus norvegicus; [2]): 1 mg/kg-day
- NOAEL (Rattus norvegicus; [2]): 0.5 mg/kg-day
- LOAEL (Rattus norvegicus; [3]): 0.25 mg/kg-day
- NOAEL (Rattus norvegicus; [3]): 0.125 mg/kg-day
- LOAEL (Rattus norvegicus; [4]): 0.5 mg/kg-day
- NOAEL (Rattus norvegicus; [4]): 0.25 mg/kg-day
- LOAEL (Mus musculus; [5]): 80 mg/kg-day
- NOAEL (Mus musculus; [5]): 40 mg/kg-day
- NOAEL (Mus musculus; acute, duration: 1 days, gavage, F, Cardiovascular: No histological alterations in the heart 30 days post-exposure / decreased relative heart weight at 80 mg/kg/day + Hepatic…): 80 mg/kg-day
- LOAEL (Mus musculus; acute, duration: 1 days, gavage, F, Death: LD50 in 30-day observation period): 120 mg/kg-day
- NOAEL (Mus musculus; acute, duration: 1 days, gavage, F, Hepatic: Increase in hepatic lipids and liver weight 2 days post-exposure at 40 mg/kg/day): 160 mg/kg-day
- LOAEL (Mus musculus; acute, duration: 1 days, gavage, F, Immunotoxicological: 28% decrease in relative spleen weight at 80 mg/kg/day / atrophy and lymphoid depletion in thymus and spleen at 160 mg…): 160 mg/kg-day
- NOAEL (Mus musculus; developmental, duration: 1 days, gavage, M, CD1, Developmental: No alteration in spontaneous activity or habituation at 2-4 months of age): 10.8 mg/kg-day
- LOAEL (Mus musculus; [6]): 6.4 mg/kg-day
- NOAEL (Mus musculus; [6]): 3 mg/kg-day
- LOAEL (Mus musculus; developmental, duration: 10 days, gavage, F, Body Weight: No weight gain at 6.4 mg/kg/day and weight loss at 12.8 mg/kg/day (net change of -2.4) + Developmental: 18-22% decreases in …): 12.8 mg/kg-day
- LOAEL (Mus musculus; [7]): 1 mg/kg-day
- NOAEL (Mus musculus; [7]): 0.3 mg/kg-day
- NOAEL (Mus musculus; short-term, duration: 4 weeks, F, B6C3F1): 5 mg/kg-day
- LOAEL (Mus musculus; [8]): 1.25 mg/kg-day
- NOAEL (Mus musculus; [8]): 0.625 mg/kg-day
- LOAEL (Mus musculus; short-term, duration: 10 days, diet, M, Body Weight: 33% weight loss): 78 mg/kg-day
- NOAEL (Mus musculus; short-term, duration: 10 days, diet, M, Hepatic: 36% increase in liver weight): 78 mg/kg-day

From EPA's ToxValDB 9.5
